This passage reports Kd results from publication PMC7481428, “Celastrol induces ROS-mediated apoptosis via directly targeting peroxiredoxin-2 in gastric cancer cells” (Theranostics, 2020).

This experiment deals with T1, peroxiredoxin-2 (Prdx2) (Homo sapiens, UniProt P32119).
T1 construct: His-tagged recombinant Prdx2 (rhPrdx2)
T1 sequence (P32119 2-198): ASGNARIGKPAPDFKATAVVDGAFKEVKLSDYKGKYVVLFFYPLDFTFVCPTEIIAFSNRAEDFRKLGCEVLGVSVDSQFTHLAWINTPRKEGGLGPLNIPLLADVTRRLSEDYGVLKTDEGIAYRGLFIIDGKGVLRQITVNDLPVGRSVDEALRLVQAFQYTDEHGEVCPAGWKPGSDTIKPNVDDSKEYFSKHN
The experiment can be described thus: ITC (also SPR KD […]; peroxidase inhibition IC50 […]). Type of experiment: binding.

`CC1=C(O)C(=O)C=C2C1=CC=C1[C@@]2(C)CC[C@@]2(C)[C@@H]3C[C@](C)(C(=O)O)CC[C@]3(C)CC[C@]12C` [Celastrol] registered a Kd of 650 nM.
